Earlier results as cited in patent US11350648B2, “Compositions and related methods for agriculture” (priority 2017, dated 2022).

Test system: gram-negative and gram-positive bacteria as well as fungi

NCR335: cationic NCR peptide (RQMIILRLNTTFRPLNFKMLRFWGQN)
antimicrobial activity: effective against gram-negative and gram-positive bacteria as well as fungi
